According to patent publication US4600710A, “β-Adrenergic receptor agonist alkylaminoalkyl pyridinemethanol derivatives” (G. D. Searle & Co., priority 1985, dated 1986):
pIC50: −log10 of the molar value. Where a name gives a salt, the structure may show the parent alone.

Assays:
[1] = system: spontaneously hypertensive rats; test: Oral dosing studies in conscious spontaneously hypertensive rats; format: in vivo, rat; details: conscious SHR, daily oral dosing 100 mg/kg for 3 days
Description: Ten adult male spontaneously hypertensive rats were anesthetized with sodium pentobarbital and instrumented with a carotid arterial catheter. On the following day each rat was tethered in a plastic cage and arterial blood pressure and heart rate were monitored via the arterial catheter continuously for 72 hours. Each rat was dosed intragastrically with 100 mg/kg of the test compound each day for three days. A vehicle treated group (saline) of 10 rats was tested simultaneously. Differences in blood pressure between the treated and vehicle group were analyzed by the Kraskal-Wallis and Wilcoxon rank sum tests.

[2] = system: spontaneously hypertensive rats; test: Intravenous dose-response studies in conscious spontaneously hypertensive rats; format: in vivo, rat; details: conscious SHR
Description: Six adult male spontaneously hypertensive rats were anesthetized with ether and instrumented with carotid artery and jugular vein catheters. The rats were allowed to recover from surgery and ether anesthesia for three to five hours. The test compound was administered intravenously in saline at doses of 0.1, 0.2, 0.7, 2, 7, and 20 mg/kg to give cumulative doses of 0.1, 0.3, 1, 3, 10, and 30 mg/kg. At the completion of these injections propranolol, a beta-adrenergic antagonist, was administered intravenously at a dose of 1 mg/kg and the injections of the test compound were repeated. The volume of each injection was 0.1 ml/100 grams of body weight. Mean arterial pressure and heart rate were measured via the carotid artery with a Statham pressure transducer and Gould physiological recorder. Results were analyzed using a paired t-test.

[3] = system: spontaneously hypertensive rats; test: Systemic hemodynamics in pentobarbital anesthetized spontaneously hypertensive rats; format: in vivo, rat
Description: Five adult male spontaneously hypertensive rats were anesthetized with sodium pentobarbital and instrumented with a femoral artery catheter for measuring arterial pressure and heart rate. The jugular vein was catheterized for injections and a thermocouple was placed in the aortic arch via the carotid artery for cardiac output measurement by the thermodilution technique. The trachea was cannulated and the rats breathed 100% oxygen. Control readings were taken and the test compound was injected in doses ranging from 0.1 to 30 mg/kg iv. After the 30 mg/kg dose, propranolol was injected iv at a dose of 1 mg/kg. Changes in hemodynamic parameters from control readings were analyzed by the paired t-test.

β-adrenergic receptor = target: T1, β-adrenergic receptor (Rattus norvegicus, UniProt P10608); test: Beta-adrenergic receptor binding ([3H]DHA displacement, rat cerebellum plasma membranes); details: rat cerebellum cortex membranes, 1 nM [3H]DHA; read-out: IC50, inhibition of β-adrenergic receptor binding of tritiated dihydroalprenolol
T1 construct: Rat cerebellums were homogenized in 20 volumes of ice cold 50 mM Tris-HCl buffer; from tissue; host or cells: rat cerebellum (crude plasma membranes)
Description: Tissue preparation: Rat cerebellum plasma membranes were prepared by the method of U'Prichard et al, (J. Biol. Chem., 253, No. 14, pp. 5090-5102, 1978). Rat cerebellums were homogenized in 20 volumes of ice cold 50 mM Tris-HCl buffer (pH 7.4) with a Tekmar homogenizer. Crude plasma membranes were obtained by centrifugation at 45,000× g for 15 min with an intermediate rehomogenization in fresh buffer. The final pellets were resuspended in ten volumes of 50 mM buffer with 0.25M sucrose.
Binding Assay: Rat cerebellum plasma membrane preparations (10 mg wet weight per ml in a volume of one ml) were incubated with 1 nM [^3 H] DHA in buffer, 1 mM catechol and 0.01% ascorbic acid, either in the presence or absence of various amounts of test substance at room temperature for 20 minutes. Bound and free radioligand were separated by addition of 3.5 ml buffer (0° C.) followed by rapid filtration through Whatman GF/B glass fiber filter. The filter was then washed rapidly with three 3.5 ml buffer (3X). Specific binding was defined as the amount of the [^3 H]DHA bound in the absence of competing ligand minus the amount bound in the presence of 10 uM (±) propranolol (nonspecific binding). […] IC50 (inhibitory concentration -50%) values were calculated from the displacement data after logit-log transformation with least squares linear regression.

T1 sequence (P10608 whole entry): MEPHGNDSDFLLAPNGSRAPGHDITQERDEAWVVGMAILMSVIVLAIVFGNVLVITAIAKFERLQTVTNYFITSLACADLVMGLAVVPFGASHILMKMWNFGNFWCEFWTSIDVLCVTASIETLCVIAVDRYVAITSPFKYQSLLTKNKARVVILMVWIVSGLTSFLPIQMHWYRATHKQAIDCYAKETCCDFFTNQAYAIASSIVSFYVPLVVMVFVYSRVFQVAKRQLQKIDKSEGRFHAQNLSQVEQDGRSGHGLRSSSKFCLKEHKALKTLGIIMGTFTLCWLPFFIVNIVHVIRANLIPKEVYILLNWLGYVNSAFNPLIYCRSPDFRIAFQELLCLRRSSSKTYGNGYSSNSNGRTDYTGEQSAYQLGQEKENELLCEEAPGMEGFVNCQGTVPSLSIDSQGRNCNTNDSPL

SMILES | elevation of heart rate [1] [beats/min] | time pressure remained reduced [1] [h] | lowering of mean arterial pressure ([1]; at 3-4 hours after dosing) [mmHg] | ED25 ([2]; Rattus norvegicus, iv, cumulative doses 0.1-30 mg/kg, read-out: calculated intravenous dose reducing mean arterial pressure by 25%) [mg/kg] | total peripheral resistance after compound ([3]; pentobarbital anesthetized SHR, iv 0.1 to 30 mg/kg, decreased from control 3 units) [units] | cardiac output after compound ([3]; pentobarbital anesthetized SHR, iv 0.1 to 30 mg/kg, increased from control 72 ml/min) [mL/min] | pIC50 (β-adrenergic receptor) | effect of propranolol on blood pressure and heart rate changes produced by the compound of the invention ([2]; propranolol 1 mg/kg iv) | effect of propranolol on hemodynamic effects (cardiac output, total peripheral resistance) of the compound of the invention ([3]; propranolol 1 mg/kg iv after the 30 mg/kg dose, anesthetized SHR)
CC(C)NCC(O)c1cccnc1 (stereo not drawn) [Example 1B, oxalate salt] | 114 | 6 to 10 | 39 | 37 | 1.1 | 92 | 4.41 |  | 
CC(C)NCC(O)COc1cccc2ccccc12 (stereo not drawn) [Propranolol, propranolol, reference compound] |  |  |  |  |  |  |  | attenuated the hypertension and tachycardia | reversed these hemodynamic effects
